Laboratory results published in patent publication US20220257491A1, “Prebiotic Oral Care Compositions and Methods” (Colgate-Palmolive Company, priority 2021, published 2022).
Marks after values point to notes of the source that are not given here.

Key:
Type in all cases: cell-based
F. nucleatum = assay: Multi-species biofilm composition: absolute abundance of F. nucleatum; conditions: for Absolute abundance Fn (F. nucleatum): mean±SD n=3
Procedure: (§1) Biofilms are grown vertically on Calcium Deficient Hydroxyapatite (CAD-HA) disks (Hitemco Medical, Old Bethpage, USA) using the Amsterdam Active Adhesion model. Biofilms are allowed to establish during 24 h (37° C., 170 rpm) under micro-aerophilic conditions (6% O2, 7% CO2, 7% H2, 80% N2). After this 24 h, disks are rinsed 3 times a day for 3 minutes (RT, 250 rpm), for 3 consecutive days, by transferring the lid containing the disks to a new 24-well plate containing 2 mL/well of the appropriate substrate solution. As a negative control, PBS (pH 5.7) without substrate supplementation is used. After each rinsing step, disks are shortly dip-rinsed in a new 24-well plate containing fresh modified BHI medium (2 mL/well) to remove remaining substrate traces. Subsequently, the lid is transferred to another 24-well plate containing fresh modified BHI medium (2 mL/well), followed by incubation (micro-aerophilic, 37° C., 170 rpm) until the next rinsing step.
(§2) NADM, N-acetyl-D-glucosamine (“NADG”) and D-(+)-mannose are selected to determine their effects on multi-species biofilm composition. […] decrease in absolute numbers in at least four of the pathogenic bacterial species tested in the assay, compared to the control, the results of which are described in Table 1 below. Absolute abundances of bacterial species are shown as mean±SD (n=3) logarithmic values of the genome equivalents per millilitre (log(Geq/mL)).

P. gingivalis = assay: Multi-species biofilm composition: absolute abundance of P. gingivalis; conditions: for Absolute abundance Pg (P. gingivalis): mean±SD n=3
Procedure: as §1, §2

P. intermedia = assay: Multi-species biofilm composition: absolute abundance of P. intermedia; conditions: mean±SD n=3
Procedure: as §1
(§3) NADM, N-acetyl-D-glucosamine (“NADG”) and D-(+)-mannose are selected to determine their effects on multi-species biofilm composition. Repeated rinsing of the biofilms with the substrates at a concentration of 1M results in a significant decrease in absolute numbers in at least four of the pathogenic bacterial species tested in the assay, compared to the control, the results of which are described in Table 1 below. Absolute abundances of bacterial species are shown as mean±SD (n=3) logarithmic values of the genome equivalents per millilitre (log(Geq/mL)).

S. mutans = assay: Multi-species biofilm composition: absolute abundance of S. mutans; conditions: mean±SD n=3
Procedure: as §1, §3

S. gordonii = assay: Multi-species biofilm composition: absolute abundance of S. gordonii; conditions: mean±SD n=3
Procedure: as §1, §3

S. mitis = assay: Multi-species biofilm composition: absolute abundance of S. mitis; conditions: mean±SD n=3
Procedure: as §1, §2

S. oralis = assay: Multi-species biofilm composition: absolute abundance of S. oralis; conditions: mean±SD n=3
Procedure: as §1, §2

S. salivarius = assay: Multi-species biofilm composition: absolute abundance of S. salivarius; conditions: mean±SD n=3
Procedure: as §1, §3

S. sanguinis = assay: Multi-species biofilm composition: absolute abundance of S. sanguinis; conditions: mean±SD n=3
Procedure: as §1, §2

[1] = test system: A. actinomycetemcomitans virulence genes; assay: Multi-species biofilm virulence gene expression, SYBR RT-qPCR: A. actinomycetemcomitans; conditions: for Fold Change in virulence gene expression: aae / Fold Change in virulence gene expression: apaH / Fold Change in virulence gene expression: cdtB / Fold Change in virulence gene expression: emaA / Fold Change in virulence gene expression: flp / Fold Change in virulence gene expression: ltxA / Fold Change in virulence gene expression: omp29 / Fold Change in virulence gene expression: omp100 / Fold Change in virulence gene expression: orf859 / Fold Change in virulence gene expression: pgA / Fold Change in virulence gene expression: vapA / Fold Change in virulence gene expression: vppA: relative to control (=1), 2^-ΔΔCt, geometric mean n=3
Procedure: as §1
(§4) The expression of 33 virulence genes from 4 periodontal pathogens is analysed to evaluate the relative virulence of the substrate-treated biofilms. For all three substrates, virulence gene expression is determined relatively to the control, and these values are also compared between substrates when this is relevant (Tables 5a-5d).

[2] = test system: P. gingivalis virulence genes; assay: Multi-species biofilm virulence gene expression, SYBR RT-qPCR: P. gingivalis; conditions: relative to control, 2^-ΔΔCt, geometric mean n=3
Procedure: as §1, §4

[3] = test system: human oral keratinocytes (HOK-18A); assay: IL-8 levels in supernatants of keratinocyte cultures exposed to substrate-treated biofilms; conditions: mean±SD n=3
Procedure: Cultures of immortalized human oral keratinocytes (HOK-18A) are grown. The relative inflammatory potential of the substrate-treated multi-species biofilms is evaluated by analyzing the expression of five inflammatory mediator genes in human oral keratinocytes (HOKs) exposed to the substrate-treated biofilms. […] The IL-8 levels in the cellular supernatant are determined as well. RNA is converted to cDNA and relative expression of inflammatory mediator genes is determined as described above with respect to the cellular housekeeping gene (3-actin.
Table 7: IL-8 levels detected in the supernatants of human oral keratinocytes (HOK-18A) cultures exposed to substrate-treated multi-species biofilms are shown as mean±SD (n=3) values (pg/mL). All substrates are dissolved in PBS at a concentration of 1 M (upper part) or 1% (w/v) (lower part). Values between 0 and 1 represent relative downregulation, values >1 represent relative upregulation. […] For such values, statistically significant differences between two experimental conditions are marked with ‘#1’ (vs. NADM), ‘#2’ (vs. NADG), ‘#3’ (vs. D-(+)-mannose) (P<0.05).

For O=C[C@@H](O)[C@@H](O)[C@H](O)[C@H](O)CO [D-mannose, D-(+)-mannose], the “Decrease in F. nucleatum vs control” value (F. nucleatum; substrate 1%(w/v)) was 1.1 log(Geq/mL), the “Absolute abundance Fn (F. nucleatum)” value (F. nucleatum; substrate 1%(w/v) in PBS) was 8.66 ± 0.29 log(Geq/mL) and the “Absolute abundance Fn (F. nucleatum)” value (F. nucleatum; substrate 1 M in PBS) was 6.59 ± 0.36 log(Geq/mL). For the same molecule, the “Absolute abundance Pg (P. gingivalis)” value (P. gingivalis; substrate 1%(w/v) in PBS) was 7.08 ± 0.17 log(Geq/mL), the “Difference in P. gingivalis amounts compared to NADG” value (P. gingivalis; substrate 1 M) was −1.25 log(Geq/mL) and the “Absolute abundance Pg (P. gingivalis)” value (P. gingivalis; substrate 1 M in PBS) was 2.75 ± 0.08*^, #2 log(Geq/mL). For the same molecule, the “Absolute abundance Pi (P. intermedia)” value (P. intermedia; substrate 1%(w/v) in PBS) was 8.06 ± 0.19 log(Geq/mL), the “Absolute abundance Pi (P. intermedia)” value (P. intermedia; substrate 1 M in PBS) was 7.80 ± 0.57 log(Geq/mL) and the “Absolute abundance S. mutans” value (S. mutans; substrate 1%(w/v) in PBS) was 7.34 ± 0.12 log(Geq/mL). For the same molecule, the “Absolute abundance S. mutans” value (S. mutans; substrate 1 M in PBS) was 8.60 ± 0.09 log(Geq/mL), the “Absolute abundance S. gord. (S. gordonii)” value (S. gordonii; substrate 1%(w/v) in PBS) was 8.29 ± 0.11 log(Geq/mL) and the “Absolute abundance S. gord. (S. gordonii)” value (S. gordonii; substrate 1 M in PBS) was 9.19 ± 0.39 log(Geq/mL). The “Absolute abundance S. mitis” value (S. mitis; substrate 1%(w/v) in PBS) was 3.00 ± 0.49 log(Geq/mL), the “Absolute abundance S. mitis” value (S. mitis; substrate 1 M in PBS) was “<LOD” and the “Absolute abundance S. oralis” value (S. oralis; substrate 1%(w/v) in PBS) was 6.27 ± 0.21 log(Geq/mL). For the same molecule, the “Absolute abundance S. oralis” value (S. oralis; substrate 1 M in PBS) was 6.83 ± 0.09 log(Geq/mL), the “Absolute abundance S. sal. (S. salivarius)” value (S. salivarius; substrate 1%(w/v) in PBS) was 2.89 ± 0.35 log(Geq/mL) and the “Absolute abundance S. sal. (S. salivarius)” value (S. salivarius; substrate 1 M in PBS) was 3.63 ± 0.90 log(Geq/mL). For the same molecule, the “Absolute abundance S. sang. (S. sanguinis)” value (S. sanguinis; substrate 1%(w/v) in PBS) was 8.19 ± 0.11 log(Geq/mL), the “Absolute abundance S. sang. (S. sanguinis)” value (S. sanguinis; substrate 1 M in PBS) was 7.39 ± 0.89 log(Geq/mL) and the “Fold Change in virulence gene expression: aae” value ([1]; substrate 1% (w/v)) was 1.06 fold. For the same molecule, the “Fold Change in virulence gene expression: apaH” value ([1]; substrate 1% (w/v)) was 0.72 fold, the “Fold Change in virulence gene expression: cdtB” value ([1]; substrate 1% (w/v)) was 0.36 fold and the “Fold Change in virulence gene expression: emaA” value ([1]; substrate 1% (w/v)) was 0.41 fold. For the same molecule, the “Fold Change in virulence gene expression: flp” value ([1]; substrate 1% (w/v)) was 1.26 fold, the “Fold Change in virulence gene expression: ltxA” value ([1]; substrate 1% (w/v)) was 0.17 fold and the “Fold Change in virulence gene expression: omp29” value ([1]; substrate 1% (w/v)) was 0.65 fold. The “Fold Change in virulence gene expression: omp100” value ([1]; substrate 1% (w/v)) was 0.34 fold, the “Fold Change in virulence gene expression: orf859” value ([1]; substrate 1% (w/v)) was 1.46 fold and the “Fold Change in virulence gene expression: pgA” value ([1]; substrate 1% (w/v)) was 0.55 fold. The “Fold Change in virulence gene expression: vapA” value ([1]; substrate 1% (w/v)) was 0.39 fold, the “Fold Change in virulence gene expression: vppA” value ([1]; substrate 1% (w/v)) was 0.53 fold and the “A. actinomycetemcomitans gene expression decrease: cdtB, emaA, ltxA, omp100 and vapA” value ([1]; substrate 1%(w/v)) was 2.4- to 5.9 fold. The “Fold Change in virulence gene expression: aae” value ([1]; substrate 1M) was 0.16 fold, the “Fold Change in virulence gene expression: apaH” value ([1]; substrate 1M) was 0.12 fold and the “Fold Change in virulence gene expression: cdtB” value ([1]; substrate 1M) was 0.13 fold. The “Fold Change in virulence gene expression: emaA” value ([1]; substrate 1M) was 0.12 fold, the “Fold Change in virulence gene expression: flp” value ([1]; substrate 1M) was 1.57 fold and the “Fold Change in virulence gene expression: ltxA” value ([1]; substrate 1M) was 0.02 fold. For the same molecule, the “Fold Change in virulence gene expression: omp29” value ([1]; substrate 1M) was 0.27 fold, the “Fold Change in virulence gene expression: omp100” value ([1]; substrate 1M) was 0.26 fold and the “Fold Change in virulence gene expression: orf859” value ([1]; substrate 1M) was 0.03 fold. The “Fold Change in virulence gene expression: pgA” value ([1]; substrate 1M) was 5.70 fold, the “Fold Change in virulence gene expression: vapA” value ([1]; substrate 1M) was 0.62 fold and the “Fold Change in virulence gene expression: vppA” value ([1]; substrate 1M) was 0.58 fold. For the same molecule, the “Fold Change in virulence gene expression: fimA” value ([2]; substrate 1%) was 2.50 fold, the “Fold Change in virulence gene expression: kgp” value ([2]; substrate 1%) was 3.07 fold and the “Fold Change in virulence gene expression: partC” value ([2]; substrate 1%) was 0.60 fold. For the same molecule, the “Fold Change in virulence gene expression: rgpA” value ([2]; substrate 1%) was 1.85 fold, the “Fold Change in virulence gene expression: fimA” value ([2]; substrate 1M) was 1.17 fold and the “Fold Change in virulence gene expression: kgp” value ([2]; substrate 1M) was 0.44 fold. For the same molecule, the “Fold Change in virulence gene expression: partC” value ([2]; substrate 1M) was 0.09 fold, the “Fold Change in virulence gene expression: rgpA” value ([2]; substrate 1M) was 0.18 fold and the “IL-8 levels in supernatants of HOK-18A cultures” value ([3]; biofilm rinsed with substrate 1%(w/v)) was 51.09 ± 13.89 pg/mL. The “IL-8 levels in supernatants of HOK-18A cultures” value ([3]; biofilm rinsed with substrate 1M) was 0.06 ± 0.04 pg/mL.
